Measurements reported in publication PMC9369712 (2022).

Experiments:
[1] = system: TP3-T6 (DNA, G4) TGGGGTCCGAGGCGGGGCTTGGG; assay: 1H NMR titration (imino protons); conditions: 70 mM KCl, 20 mM KH2PO4, pH 7.0, 25 °C, 90% H2O
[2] = system: TP3-T6 (DNA, G4) TGGGGTCCGAGGCGGGGCTTGGG; assay: CD melting at 265 nm; conditions: 70 mM KCl; 20 mM phosphate pH 7.1; 2 µM DNA, 6 µM ligand; no stabilization
[3] = system: TP3-T6 (DNA, G4) TGGGGTCCGAGGCGGGGCTTGGG; assay: CD melting; conditions: 70 mM KCl; 20 mM phosphate pH 7.1; 2 µM DNA, DNA:ligand 1:3

binding ([1]; 3'-end tetrad)	Compound	further results
yes	CN(C)CCNC(=O)c1cccn2c(=O)c3cc4ccccc4cc3nc12	
yes	CN(C)CCNC(=O)c1cccn2c(=O)c3sc4ccccc4c3nc12	binding [2]: yes
	Cc1cc2c3c([n+](C)c4ccc(F)cc4c3c1)-c1cc(F)ccc1N2C	binding ([1]; 5'-terminal tetrad signals broadened): yes
yes	Cc1cnc(CNC(=O)c2c(=O)c3ccc(N4CCCN(C)CC4)nc3n3c2sc2ccccc23)cn1	
	NCCOc1cc(C(=O)Nc2cc(OCCN)c3ccccc3n2)nc(C(=O)Nc2cc(OCCN)c3ccccc3n2)c1	ΔTm [3]: > 30 °C
